# Test results published in patent US9963461B2, “Phillygenin ibuprofen ester, preparation method therefor, and application thereof” (priority 2014, dated 2018).
# Like-named read-outs stand apart in the source and are kept apart here. Marks after values point to notes of the source that are not given here.
# Legend:
# [1] = system: beer yeast induced rat fever; assay: Beer yeast induced rat fever; assay type: in vivo, Wistar rats
# Experimental: Male Wistar rats were selected, weighing 180-200 g. Before the test, WSC-411P portable digital thermometer was used to measure the normal rectal temperature twice (with certain interval for each time), and the average value of the two measurements was taken as the normal body temperature of the rat. Then 70 rats with the body temperature between 36.5° C. and 38° C. were chosen to be randomly divided into 7 groups by weight: the model (0.5% carboxymethylcellulose) group, the 2.5, 5, and 10 mg/kg phillygenin ibuprofen ester groups, the positive drug paracetamol (100 mg/kg) group, the ibuprofen group (i.e. prodrug control group, 300 mg/kg), the phillygenin group (100 mg/kg), with 10 rats for each group. Each group of rats were subjected to back subcutaneous injection with 10% fresh beer yeast suspension of 10 ml/kg to induce heat. After administration of 10% fresh beer yeast suspension for 6.0 h, phillygenin ibuprofen ester and paracetamol were both subjected to intragastric administration, and the model group was intragastrically administrated with equal volume of 0.5% carboxymethylcellulose. Rectal temperature was measured after 1 h, 2 h, 3 h and 4 h of the administration respectively. Changes in the body temperature were observed and difference between the groups was compared by inter-group t test processing through antipyretic percentage.
# [2] = system: parainfluenza virus; assay type: in vivo, Kunming mice; conditions: for Lung index (X ± S) / Lung index Inhibitive rate (%): parainfluenza virus infected mice, 5 days
# [3] = system: parainfluenza virus; assay type: in vivo, Kunming mice; conditions: mouse, in vivo
# [4] = Solubility; assay type: physicochemical
# [5] = system: rabbit fever induced by typhoid and paratyphoid vaccine; assay: Rabbit fever induced by typhoid and paratyphoid vaccine; assay type: in vivo, Japanese white rabbits
# Experimental: Japanese male big-ear white rabbits, weighing 1.5-2.0 kg. Before the test, WSC-411P portable digital thermometer was used to measure the normal rectal temperature twice (with certain interval for each time), and the average value was taken as the normal body temperature. Then 48 Japanese big-ear white rabbits with body temperature of 38-39.6° C. were selected and randomly divided into 8 groups by weight, namely: the blank control (normal saline) group, the model control (0.5% carboxymethylcellulose) group, the ibuprofen group (300 mg/kg), the phillygenin group (10 mg/kg), the 1.25, 2.5, and 5 mg/kg phillygenin ibuprofen ester groups and the positive drug paracetamol (50 mg/kg) group. The rabbits were fixed in a fixator. The blank control group was intravenously injected with normal saline of 1 ml/kg via the ear margin; The model control group and the drug groups were intravenously injected with typhoid and paratyphoid vaccines of 0.8 ml/kg via the ear margin. When the body temperature rise of the rabbits was greater than 1° C. (requiring about 1-1.5 h, which was restricted to 1 h in this test), the blank control group and the model group were administered intragastrically with 0.5% carboxymethycellulose of 1 ml/kg, and the drug groups were administered intragastrically with phillygenin ibuprofen ester and paracetamol. […]
# [6] = system: respiratory syncytial virus (RSV); assay: Impact of the drugs on the virus-induced cytopathy (MTT); assay type: cell-based; conditions: RSV 100 TCID50, Vero cells, about the maximal non-cytotoxic concentration, 72 hours
# [7] = system: mice pain induced by acetic acid; assay: Analgesic test, mice writhing induced by acetic acid; assay type: in vivo, Kunming mice; conditions: for Writhing times: within 15 min after 0.7% acetic acid
# Experimental: 72 Kunming mice were randomly divided into 6 groups, with 12 mice for each group. (1) the blank normal control group (i.e. saline group, […]); (2) positive drug aspirin group (200 mg/kg); (3) ibuprofen group (300 mg/kg); (4) high dose group of phillygenin ibuprofen ester (300 mg/kg); (5) medium dose group of phillygenin ibuprofen ester (150 mg/kg); (6) low dose group of phillygenin ibuprofen ester (75 mg/kg). […] The number of mice writhings within 15 min after administration was recorded. The number of writhings was taken as the evaluation index to evaluate the analgesic effect.
# [8] = system: influenza virus; assay type: in vivo, Kunming mice; conditions: lung suspensions, influenza virus infected mice, 5 days
# [9] = system: influenza virus; assay: Impact of the drugs on the virus-induced cytopathy (MTT); assay type: cell-based; conditions: influenza virus 100 TCID50, Vero cells, about the maximal non-cytotoxic concentration, 72 hours
# [10] = system: Enterovirus EV71; assay: as above; assay type: cell-based; conditions: EV71 100 TCID50, Vero cells, about the maximal non-cytotoxic concentration, 72 hours
# [11] = system: coxsackie virus B3 (CVB3); assay: as above; assay type: cell-based; conditions: CVB3 100 TCID50, Vero cells, about the maximal non-cytotoxic concentration, 72 hours
# [12] = system: influenza and parainfluenza virus induced pneumonia; assay: Histomorphology observation of lung; assay type: in vivo, Kunming mice; conditions: high dosage and medium dosage groups, Day 5 after treatment
# Experimental: On Day 5 after treatment, the lungs of mice in each group were picked, and general pathological changes of their viscera are observed by naked eyes and are recorded. The lungs were rinsed with normal saline and moisture thereon is sucked up by using filter paper, a part of the lung was fixed with 10% formaldehyde and embedded with paraffin and sliced, and the lung tissue slices were stained with HE, followed by observation and photographing under a microscope.
# [13] = 2.5 mg/kg, 1 h after administration
# [14] = 2.5 mg/kg, 2 h after administration
# [15] = 2.5 mg/kg, 3 h after administration
# [16] = 2.5 mg/kg, 4 h after administration
# [17] = 5.0 mg/kg, 1 h after administration
# [18] = 5.0 mg/kg, 2 h after administration
# [19] = 5.0 mg/kg, 3 h after administration
# [20] = 5.0 mg/kg, 4 h after administration
# [21] = 10.0 mg/kg, 1 h after administration
# [22] = 10.0 mg/kg, 3 h after administration
# [23] = 10.0 mg/kg, 4 h after administration
# [24] = 1.25 mg/kg, time after administration (min) 30
# [25] = 1.25 mg/kg, time after administration (min) 60
# [26] = 1.25 mg/kg, time after administration (min) 90
# [27] = 1.25 mg/kg, time after administration (min) 120
# [28] = 1.25 mg/kg, time after administration (min) 180
# [29] = 2.5 mg/kg, time after administration (min) 30
# [30] = 2.5 mg/kg, time after administration (min) 60
# [31] = 2.5 mg/kg, time after administration (min) 90
# [32] = 2.5 mg/kg, time after administration (min) 120
# [33] = 2.5 mg/kg, time after administration (min) 180
# [34] = 5.0 mg/kg, time after administration (min) 30
# [35] = 5.0 mg/kg, time after administration (min) 90
# [36] = 5.0 mg/kg, time after administration (min) 120
# [37] = 5.0 mg/kg, time after administration (min) 180
compound,measurement,setting,value
"COc1ccc([C@H]2OCC3C2CO[C@H]3c2ccc(OC)c(OC(=O)C(C)c3ccc(CC(C)C)cc3)c2)cc1OC (stereo partly drawn) [Phillygenin ibuprofen ester, phillygenin ibuprofen ester]",Body temperature (° C.),[1]; [13],38.93 ± 0.43 °C
same,antipyretic percentage (%),[1]; [13],−1.01 ± 1.05 %
same,Body temperature (° C.),[1]; [14],38.75 ± 0.43 °C
same,antipyretic percentage (%),[1]; [14],−1.48 ± 1.11 %
same,Body temperature (° C.),[1]; [15],38.56 ± 0.52 °C
same,antipyretic percentage (%),[1]; [15],−1.97 ± 1.67 %
same,Body temperature (° C.),[1]; [16],38.25 ± 0.58 °C
same,antipyretic percentage (%),[1]; [16],−2.47 ± 1.80 %
same,Body temperature (° C.),[1]; [17],38.48 ± 0.59 °C
same,antipyretic percentage (%),[1]; [17],−1.91 ± 0.40 %
same,Body temperature (° C.),[1]; [18],38.33 ± 0.50 °C
same,antipyretic percentage (%),[1]; [18],−2.29 ± 0.54**^Δ▴▴ %
same,Body temperature (° C.),[1]; [19],37.85 ± 0.33 °C
same,antipyretic percentage (%),[1]; [19],−3.52 ± 0.38***^Δ▴ %
same,Body temperature (° C.),[1]; [20],37.67 ± 0.45 °C
same,antipyretic percentage (%),[1]; [20],−3.98 ± 0.52***^Δ▴▴ %
same,Body temperature (° C.),[1]; [21],38.61 ± 0.51 °C
same,antipyretic percentage (%),[1]; [21],−2.10 ± 0.53**^Δ▴▴ %
same,Body temperature (° C.),"[1]; 10.0 mg/kg, 2 h after administration",39.13 ± 0.45 °C
same,Body temperature (° C.),[1]; [22],37.8 ± 0.40 °C
same,antipyretic percentage (%),[1]; [22],−4.01 ± 1.12***^Δ▴▴ %
same,Body temperature (° C.),[1]; [23],37.74 ± 0.31 °C
same,antipyretic percentage (%),[1]; [23],−4.30 ± 1.26***^Δ▴▴ %
same,effect on the rat fever induced by beer yeast suspension vs model group,"[1]; medium and high dose groups (5, 10 mg/kg), 1 h, 2 h, 3 h and 4 h after administration",significant cooling effects
same,effect on average lung index vs infection model group,"[2]; mouse, in vivo",certain protective effect
same,Lung index (X ± S),[2]; 3.25 mg/kg/d intragastric,1.320 ± 0.053
same,Lung index Inhibitive rate (%),[2]; 3.25 mg/kg/d intragastric,17.01%
same,Lung index (X ± S),[2]; 13.0 mg/kg/d intragastric,1.237 ± 0.070
same,Lung index Inhibitive rate (%),[2]; 13.0 mg/kg/d intragastric,22.25%
same,Hemagglutination titer (InX),[3]; 3.25 mg/kg/day,21.55 ± 0.857
same,Hemagglutination titer Inhibitive rate (%),[3]; 3.25 mg/kg/day,34.90%
same,Hemagglutination titer (InX),[3]; 13 mg/kg/day,19.75 ± 0.902
same,Hemagglutination titer Inhibitive rate (%),[3]; 13 mg/kg/day,40.34%
same,solubility,[4],"soluble in methanol; chloroform, and dichloromethane"
same,Body temperature (° C.),[5]; [24],40.68 ± 0.41 °C
same,antipyretic percentage (%),[5]; [24],0.98 ± 0.11%
same,Body temperature (° C.),[5]; [25],40.61 ± 0.38 °C
same,antipyretic percentage (%),[5]; [25],−1.15 ± 0.15 %
same,Body temperature (° C.),[5]; [26],40.50 ± 0.39 °C
same,antipyretic percentage (%),[5]; [26],−1.40 ± 0.20 %
same,Body temperature (° C.),[5]; [27],40.29 ± 0.42 °C
same,antipyretic percentage (%),[5]; [27],−1.92 ± 0.31 %
same,Body temperature (° C.),[5]; [28],40.10 ± 0.35 °C
same,antipyretic percentage (%),[5]; [28],−2.39 ± 0.43 %
same,Body temperature (° C.),[5]; [29],40.83 ± 0.39 °C
same,antipyretic percentage (%),[5]; [29],−1.10 ± 0.00 %
same,Body temperature (° C.),[5]; [30],40.37 ± 0.33 °C
same,antipyretic percentage (%),[5]; [30],−2.20 ± 0.05**^Δ▴▴ %
same,Body temperature (° C.),[5]; [31],40.12 ± 0.21 °C
same,antipyretic percentage (%),[5]; [31],−2.81 ± 0.12 %
same,Body temperature (° C.),[5]; [32],40.02 ± 0.20 °C
same,antipyretic percentage (%),[5]; [32],−3.06 ± 0.43 %
same,Body temperature (° C.),[5]; [33],39.90 ± 0.25 °C
same,antipyretic percentage (%),[5]; [33],−3.35 ± 0.29 %
same,antipyretic percentage (%),"[5]; 5.0 mg/kg, 60 min after administration",−2.61 ± 0.10**^ΔΔ▴▴ %
same,Body temperature (° C.),[5]; [34],40.57 ± 0.28 °C
same,antipyretic percentage (%),[5]; [34],−1.30 ± 0.11 %
same,Body temperature (° C.),"[5]; 5.0 mg/kg, time after administration (min) 60",40.04 ± 0.20 °C
same,Body temperature (° C.),[5]; [35],39.88 ± 0.23 °C
same,antipyretic percentage (%),[5]; [35],−2.98 ± 0.22 %
same,Body temperature (° C.),[5]; [36],39.65 ± 0.20 °C
same,antipyretic percentage (%),[5]; [36],−3.54 ± 0.18***^Δ▴▴▴ %
same,Body temperature (° C.),[5]; [37],39.42 ± 0.25 °C
same,antipyretic percentage (%),[5]; [37],−4.10 ± 0.17***^Δ▴▴ %
same,effect on rabbit fever induced by the typhoid and paratyphoid vaccines vs model group,"[5]; high and medium dose groups (5, 10 mg/kg) 30-240 min, low dose group (5 mg/kg) 60-240 min after administration",significant antipyretic effect
same,antiviral effective rate (ER %),[6],87.74**^# %
same,Writhing times,[7]; 75 mg/kg intragastric,15.8*
same,Writhing times,[7]; 150 mg/kg intragastric,6.5*
same,Writhing times,[7]; 300 mg/kg intragastric,3.9*^#
same,effect on mice pain induced by acetic acid vs blank control group,"[7]; low, medium and high dose groups (75, 150, 300 mg/kg), P<0.01",had analgesic effect
same,Hemagglutination titer (InX),[8]; 3.25 mg/kg/d,22.01 ± 1.420
same,Hemagglutination titer Inhibitive rate (%),[8]; 3.25 mg/kg/d,32.07%
same,Hemagglutination titer (InX),[8]; 13.0 mg/kg/d,19.32 ± 0.624
same,Hemagglutination titer Inhibitive rate (%),[8]; 13.0 mg/kg/d,40.36%
same,antiviral effective rate (ER %),[9],99.95**^# %
same,antiviral effective rate (ER %),[10],99.81**^## %
same,antiviral effective rate (ER %),[11],75.83**^## %
same,"lung lesions of mice (lung histology, HE)",[12],significantly alleviated
